The source of these data is patent publication US20250064789A1, “KETOAMIDE DERIVATIVES AND PHARMACEUTICAL USES THEREOF” (priority 2022, published 2025).

One test addresses recombinant SARS-CoV-2 M^pro (Severe acute respiratory syndrome coronavirus 2 (2019-nCoV) (SARS-CoV-2), UniProt P0DTD1). The test can be described thus: Inhibition of SARS-CoV-2 M^pro enzyme activity (fluorescent substrate assay). Format: biochemical. The settings on record: inhibition of SARS-CoV-2 M^pro enzyme activity; values given in μM; read-out: IC50.
With `C[C@@H](NC(=O)Cc1cc(OC(F)(F)F)ccc1F)C(=O)N[C@H](Cc1ccccc1)C(=O)C(=O)NCc1nccs1` [Compound 382], the IC50 is 15 ± 1.3 µM. As for `O=C(NCc1cscn1)C(=O)[C@@H](Cc1ccccc1)NC(=O)[C@H]1CC(F)(F)CN1C(=O)C1CCCC(F)(F)C1` (stereo partly drawn) [Compound 434], the IC50 turned out to be 2.05 ± 0.02 µM.

The test is the same for the next values; noted with them: inhibition of SARS-CoV-2 M^pro enzyme activity; values in nM; read-out: IC50.
For `C[C@@H](NC(=O)C1C[C@@H]2[C@H](C1)C2(F)F)C(=O)N[C@H](Cc1ccco1)C(=O)C(=O)NCc1ccccn1` (stereo partly drawn) [Compound 366], the IC50 is 0.0646 ± 0.0007 µM. For `C[C@@H](NC(=O)C1CCC(F)(F)CC1)C(=O)N[C@H](Cc1ccco1)C(=O)C(=O)NCc1nccs1` [Compound 367], the IC50 was 0.105 ± 0.0105 µM. For the molecule `C[C@@H](NC(=O)CC1CC1(F)F)C(=O)N[C@H](Cc1ccco1)C(=O)C(=O)NCc1nccs1` (stereo partly drawn) [Compound 368], the IC50 was 0.197 ± 0.014 µM.

With `C[C@@H](NC(=O)C1CCCCCC1)C(=O)N[C@H](Cc1ccccc1)C(=O)C(=O)NCc1nccs1` [Compound 370], the IC50 stood at 0.0148 ± 0.0007 µM.

Consider `C[C@@H](NC(=O)C1CC2CCC1C2)C(=O)N[C@H](Cc1ccccc1)C(=O)C(=O)NCc1nccs1` (stereo partly drawn) [Compound 371], for which the IC50 was found to be 0.0317 ± 0.0026 µM. Regarding `C[C@@H](NC(=O)C1CC12CCC(F)(F)CC2)C(=O)N[C@H](Cc1ccccc1)C(=O)C(=O)NCc1nccs1` (stereo partly drawn) [Compound 372], the IC50 came out at 0.0106 ± 0.0004 µM. As for `C[C@@H](NC(=O)CC1CCC(F)(F)CC1)C(=O)N[C@H](Cc1ccccc1)C(=O)C(=O)NCc1nccs1` [Compound 373], the IC50 was 0.016 ± 0.0008 µM. `C[C@@H](NC(=O)C1(F)CCCCC1)C(=O)N[C@H](Cc1ccccc1)C(=O)C(=O)NCc1nccs1` [Compound 374]: the IC50 came out at 0.0208 ± 0.0016 µM. Same read-out and setting: under `C[C@@H](NC(=O)CC1CC1(F)F)C(=O)N[C@H](Cc1ccccc1)C(=O)C(=O)NCc1nccs1` (stereo partly drawn) [Compound 376] stands 0.0352 ± 0.0036 µM. Turning to `C[C@@H](NC(=O)[C@@H]1C[C@@H]2[C@H](C1)C2(F)F)C(=O)N[C@H](Cc1ccccc1)C(=O)C(=O)NCc1nccs1` [Compound 377], the IC50 was determined as 0.08 ± 0.0036 µM. As to `C[C@@H](NC(=O)c1cc2ccccc2[nH]1)C(=O)N[C@H](Cc1ccccc1)C(=O)C(=O)NCc1nccs1` [Compound 380], the IC50 stood at 0.0558 ± 0.0072 µM. In the case of `C[C@@H](NC(=O)c1ccn(-c2ccccc2)n1)C(=O)N[C@H](Cc1ccccc1)C(=O)C(=O)NCc1nccs1` [Compound 381], the IC50 was 0.4168 ± 0.004 µM. For the molecule `C[C@@H](NC(=O)c1cc(Cl)cc(OC(F)(F)F)c1)C(=O)N[C@H](Cc1ccccc1)C(=O)C(=O)NCc1nccs1` [Compound 383], the IC50 was 0.0215 ± 0.0008 µM.

Regarding `COc1ccc(OC(F)(F)F)cc1C(=O)N[C@H](C)C(=O)N[C@H](Cc1ccccc1)C(=O)C(=O)NCc1nccs1` [Compound 384], the IC50 came to 0.0155 ± 0.0003 µM.

Consider `C[C@@H](NC(=O)c1cc(OC(F)(F)F)ccc1F)C(=O)N[C@H](Cc1ccccc1)C(=O)C(=O)NCc1nccs1` [Compound 385], for which the concentration for half-maximal inhibition (IC50) was 0.0558 ± 0.0072 µM.

In the case of `O=C(CC1CC1(F)F)NCC(=O)N[C@H](Cc1ccccc1)C(=O)C(=O)NCc1nccs1` (stereo partly drawn) [Compound 386], the IC50 turned out to be 0.166 ± 0.0021 µM.

As to `O=C(CNC(=O)C1CCC(F)(F)CC1)N[C@H](Cc1ccccc1)C(=O)C(=O)NCc1nccs1` [Compound 388], the IC50 was found to be 0.0629 ± 0.0081 µM. On to `O=C(CNC(=O)[C@@H]1C[C@@H]2[C@H](C1)C2(F)F)N[C@H](Cc1ccccc1)C(=O)C(=O)NCc1nccs1` [Compound 389], for which the IC50 is 0.11 ± 0.0016 µM. Regarding `O=C(CC1CCC(F)(F)CC1)NCC(=O)N[C@H](Cc1ccccc1)C(=O)C(=O)NCc1nccs1` [Compound 390], the IC50 turned out to be 0.0218 ± 0.0011 µM. Turning to `O=C(CNC(=O)C1CCC(F)(F)C1)N[C@H](Cc1ccccc1)C(=O)C(=O)NCc1nccs1` (stereo partly drawn) [Compound 391], the IC50 worked out at 0.109 ± 0.0086 µM. For the molecule `COC[C@@H](NC(=O)C1CCC(F)(F)CC1)C(=O)N[C@H](Cc1ccccc1)C(=O)C(=O)NCc1nccs1` [Compound 393], the IC50 was determined as 0.0882 ± 0.0056 µM. For `COC[C@@H](NC(=O)CC1CCC(F)(F)CC1)C(=O)N[C@H](Cc1ccccc1)C(=O)C(=O)NCc1nccs1` [Compound 394], the IC50 is 0.0124 ± 0.0014 µM. With `COC[C@@H](NC(=O)CC1CC1(F)F)C(=O)N[C@H](Cc1ccccc1)C(=O)C(=O)NCc1nccs1` (stereo partly drawn) [Compound 396], the IC50 was 0.0488 ± 0.0004 µM. For `COC[C@@H](NC(=O)[C@H]1CC[C@@H](F)CC1)C(=O)N[C@H](Cc1ccccc1)C(=O)C(=O)NCc1nccs1` [Compound 399], the IC50 was 0.0328 ± 0.0015 µM.

Consider `O=C(NCc1nccs1)C(=O)[C@@H](Cc1ccccc1)NC(=O)[C@H]1CC(F)(F)CN1C(=O)CC1CCC(F)(F)CC1` [Compound 401], for which the IC50 came to 0.019 ± 0.0001 µM. Consider `O=C(NCc1nccs1)C(=O)[C@@H](Cc1ccccc1)NC(=O)[C@H]1CC(F)(F)CN1C(=O)C1CCCC(F)(F)C1` (stereo partly drawn) [Compound 403], for which the IC50 was found to be 0.0204 ± 0.0024 µM. The same measure, in the same setting: the same measure for `O=C(NCc1nccs1)C(=O)[C@@H](Cc1ccccc1)NC(=O)[C@H]1CC(F)(F)CN1C(=O)C1CCC(F)(F)C1` (stereo partly drawn) [Compound 404]: 0.0477 ± 0.001 µM; for `O=C(NCc1nccs1)C(=O)[C@@H](Cc1ccccc1)NC(=O)[C@H]1CC(F)(F)CN1C(=O)CC1CC1(F)F` (stereo partly drawn) [Compound 405]: 0.104 ± 0.0017 µM. On the same count and under the same terms, the same measure for `O=C(NCc1nccs1)C(=O)[C@@H](Cc1ccccc1)NC(=O)[C@H]1CC(F)(F)CN1C(=O)[C@@H]1C[C@@H]2[C@H](C1)C2(F)F` [Compound 406]: 0.0527 ± 0.0011 µM; for `O=C(NCc1nccs1)C(=O)[C@@H](Cc1ccccc1)NC(=O)[C@H]1COCCN1C(=O)C1CCC(F)(F)CC1` [Compound 407]: 0.0214 ± 0.0003 µM. With `O=C(NCc1nccs1)C(=O)[C@@H](Cc1ccccc1)NC(=O)[C@H]1COCCN1C(=O)CC1CC(F)(F)C1` [Compound 408], the IC50 was 0.0149 ± 0.0005 µM. Still for that read-out and setting: under `O=C(NCc1nccs1)C(=O)[C@@H](Cc1ccccc1)NC(=O)[C@H]1COCCN1C(=O)C1CCC(F)(F)C1` (stereo partly drawn) [Compound 409] stands 0.0366 ± 0.0004 µM; under `O=C(NCc1nccs1)C(=O)[C@@H](Cc1ccccc1)NC(=O)[C@H]1COCCN1C(=O)C1CCCC(F)(F)C1` (stereo partly drawn) [Compound 410], 0.0253 ± 0.0017 µM; under `O=C(NCc1nccs1)C(=O)[C@@H](Cc1ccccc1)NC(=O)[C@H]1COCCN1C(=O)CC1CCC(F)(F)CC1` [Compound 411], 0.0155 ± 0.0001 µM. For the molecule `O=C(NCc1nccs1)C(=O)[C@@H](Cc1ccccc1)NC(=O)[C@H]1COCCN1C(=O)[C@@H]1C[C@@H]2[C@H](C1)C2(F)F` [Compound 412], the IC50 amounted to 0.0248 ± 0.0008 µM. Same read-out and setting: the same measure for `O=C(NCc1nccs1)C(=O)[C@@H](Cc1ccccc1)NC(=O)[C@H]1COCCN1C(=O)CC1CC1(F)F` (stereo partly drawn) [Compound 413]: 0.0291 ± 0.0025 µM; for `C[C@@H](NC(=O)N1CCC(F)(F)CC1)C(=O)N[C@H](Cc1ccccc1)C(=O)C(=O)NCc1nccs1` [Compound 414]: 0.0959 ± 0.0097 µM. Same read-out and setting: the same measure for `C[C@@H](NC(=O)C1CCCC(F)(F)C1)C(=O)N[C@H](Cc1ccccc1)C(=O)C(=O)NCc1cscn1` (stereo partly drawn) [Compound 416]: 0.019 ± 0.0004 µM; for `C[C@@H](NC(=O)CC1CCC(F)(F)CC1)C(=O)N[C@H](Cc1ccccc1)C(=O)C(=O)NCc1cscn1` [Compound 419]: 0.0098 ± 0.0001 µM; for `C[C@@H](NC(=O)[C@@H]1C[C@@H]2[C@H](C1)C2(F)F)C(=O)N[C@H](Cc1ccccc1)C(=O)C(=O)NCc1cscn1` [Compound 420]: 0.0108 ± 0.0007 µM.

In the case of `O=C(CNC(=O)C1CCC(F)(F)CC1)N[C@H](Cc1ccccc1)C(=O)C(=O)NCc1cscn1` [Compound 421], the IC50 turned out to be 0.0207 ± 0.0005 µM.

As to `O=C(CC1CCC(F)(F)CC1)NCC(=O)N[C@H](Cc1ccccc1)C(=O)C(=O)NCc1cscn1` [Compound 422], the IC50 was determined as 0.0171 ± 0.0001 µM. For `O=C(CNC(=O)[C@@H]1C[C@@H]2[C@H](C1)C2(F)F)N[C@H](Cc1ccccc1)C(=O)C(=O)NCc1cscn1` [Compound 424], the IC50 was determined as 0.0207 ± 0.0002 µM.

With `O=C(CC1CC1(F)F)NCC(=O)N[C@H](Cc1ccccc1)C(=O)C(=O)NCc1cscn1` (stereo partly drawn) [Compound 425], the IC50 amounted to 0.0365 ± 0.0003 µM. With `O=C(CNC(=O)C1CCCCCC1)N[C@H](Cc1ccccc1)C(=O)C(=O)NCc1cscn1` [Compound 426], the IC50 was determined as 0.0094 ± 0.0001 µM. The same measure, in the same setting: the same measure for `O=C(CNC(=O)C1CC2CCC1C2)N[C@H](Cc1ccccc1)C(=O)C(=O)NCc1cscn1` (stereo partly drawn) [Compound 427]: 0.0209 ± 0.0004 µM. Turning to `O=C(CNC(=O)C1(F)CCCCC1)N[C@H](Cc1ccccc1)C(=O)C(=O)NCc1cscn1` [Compound 428], the IC50 was 0.0171 ± 0.0001 µM. `O=C(CNC(=O)C1CCC(F)(F)C1)N[C@H](Cc1ccccc1)C(=O)C(=O)NCc1cscn1` (stereo partly drawn) [Compound 429]: the IC50 was determined as 0.0338 ± 0.001 µM. With `O=C(CNC(=O)C1CCCC(F)(F)C1)N[C@H](Cc1ccccc1)C(=O)C(=O)NCc1cscn1` (stereo partly drawn) [Compound 430], the IC50 was 0.02 ± 0.0005 µM.

For `COC[C@@H](NC(=O)C1CCC(F)(F)CC1)C(=O)N[C@H](Cc1ccccc1)C(=O)C(=O)NCc1cscn1` [Compound 431], the IC50 came out at 0.2337 ± 0.0018 µM. `COC[C@@H](NC(=O)CC1CCC(F)(F)CC1)C(=O)N[C@H](Cc1ccccc1)C(=O)C(=O)NCc1cscn1` [Compound 432]: the IC50 is 0.0115 ± 0.0001 µM. As to `O=C(NCc1cscn1)C(=O)[C@@H](Cc1ccccc1)NC(=O)[C@H]1CC(F)(F)CN1C(=O)C1CCC(F)(F)CC1` [Compound 433], the IC50 came out at 0.7496 ± 0.0011 µM.

As for `O=C(NCc1cscn1)C(=O)[C@@H](Cc1ccccc1)NC(=O)[C@H]1COCCN1C(=O)CC1CC1(F)F` (stereo partly drawn) [Compound 435], the IC50 was 0.0582 ± 0.0013 µM. With `O=C(NCc1cscn1)C(=O)[C@@H](Cc1ccccc1)NC(=O)[C@H]1COCCN1C(=O)CC1CC(F)(F)C1` [Compound 436], the IC50 is 0.171 ± 0.0024 µM. `O=C(NCc1cscn1)C(=O)[C@@H](Cc1ccccc1)NC(=O)[C@H]1COCCN1C(=O)C1CCC(F)(F)C1` (stereo partly drawn) [Compound 437]: the IC50 is 0.0611 ± 0.0012 µM. On the same count and under the same terms, under `O=C(NCc1cscn1)C(=O)[C@@H](Cc1ccccc1)NC(=O)[C@H]1COCCN1C(=O)C1CCC(F)(F)CC1` [Compound 438] stands 0.0234 ± 0.0018 µM; under `O=C(CNC(=O)c1ccc(Cl)cc1)N[C@H](Cc1ccccc1)C(=O)C(=O)NCc1ccccn1` [Compound 439], 0.0462 ± 0.0003 µM. For `O=C(CNC(=O)c1ccc(Cl)c(Cl)c1)N[C@H](Cc1ccccc1)C(=O)C(=O)NCc1ccccn1` [Compound 440], the IC50 was 0.0204 ± 0.0004 µM.
